Results published in patent publication US20250177359A1, “COMPOUNDS FOR USE IN THE TREATMENT OF CANCER AND INFLAMMATORY CONDITIONS” (priority 2022, published 2025).

Target: T1, PARP10 (Homo sapiens, UniProt Q53GL7)
T1 construct: made in house
T1 sequence (Q53GL7 1-1025): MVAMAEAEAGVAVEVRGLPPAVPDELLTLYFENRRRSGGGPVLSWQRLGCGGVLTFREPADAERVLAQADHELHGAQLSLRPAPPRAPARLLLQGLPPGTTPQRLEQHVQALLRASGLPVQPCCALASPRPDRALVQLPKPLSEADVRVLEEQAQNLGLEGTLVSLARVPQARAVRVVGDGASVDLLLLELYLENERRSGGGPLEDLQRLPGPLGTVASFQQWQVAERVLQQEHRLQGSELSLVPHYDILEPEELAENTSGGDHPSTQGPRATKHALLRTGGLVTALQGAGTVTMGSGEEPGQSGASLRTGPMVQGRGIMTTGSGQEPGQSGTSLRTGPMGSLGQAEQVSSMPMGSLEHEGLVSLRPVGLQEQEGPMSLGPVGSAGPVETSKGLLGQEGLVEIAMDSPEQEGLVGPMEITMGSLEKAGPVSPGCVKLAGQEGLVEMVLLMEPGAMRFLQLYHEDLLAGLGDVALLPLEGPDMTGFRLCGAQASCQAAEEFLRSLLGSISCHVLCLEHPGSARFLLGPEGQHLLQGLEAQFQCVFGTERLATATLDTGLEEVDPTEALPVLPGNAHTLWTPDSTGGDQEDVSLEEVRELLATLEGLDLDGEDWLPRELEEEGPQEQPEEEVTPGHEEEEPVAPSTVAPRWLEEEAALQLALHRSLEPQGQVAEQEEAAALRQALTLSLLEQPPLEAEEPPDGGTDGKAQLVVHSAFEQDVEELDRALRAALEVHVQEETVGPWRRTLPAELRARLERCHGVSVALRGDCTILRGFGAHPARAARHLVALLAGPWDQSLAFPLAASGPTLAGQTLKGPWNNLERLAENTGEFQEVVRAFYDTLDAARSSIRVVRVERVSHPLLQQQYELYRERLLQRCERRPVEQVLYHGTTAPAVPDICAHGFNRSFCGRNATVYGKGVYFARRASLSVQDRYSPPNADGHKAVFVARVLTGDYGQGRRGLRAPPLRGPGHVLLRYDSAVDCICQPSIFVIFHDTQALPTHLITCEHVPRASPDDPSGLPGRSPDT
Assay: Activity assay measuring NAD+ consumption, PARP10 (Tables 1-3)
Assay type: biochemical
Details: PARP10 IC50, Tables 1-3 assay

Nc1nnc2sc3cc(O)ccc3n12 [Compound 109, 3-Amino[1,2,4]triazolo[3,4-b][1,3]benzothiazol-7-ol]
IC50: 220 nM
